Data reported in patent US10028961B2, “Therapeutically active compounds and their methods of use” (AGIOS PHARMACEUTICALS, INC., priority 2013, dated 2018).
Read-outs that look alike come from different tables or passages of the source.

Legend:
[1] = system: U87MG pLVX-IDH2 R140Q-neo cells; assay: U87MG pLVX-IDH2 R140Q-neo cell based assay, 2-HG by LC-MS; conditions: Homo sapiens, U-87 MG
[2] = system: Neurosphere cells (TS603); assay: Cellular assay for IDH1m R132H inhibitors, 2-HG by LC-MS in neurosphere cells (TS603); type: cell-based; conditions: 2-HG in media at 48 hours
Outline: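 TS603 neurosphere cells in NeuroCult medium were dosed with compound (0.25% DMSO final) at 37 C, 5% CO2. After 48 hours, medium 2-HG was measured by LC-MS. At 72 hours, viability was read by CellTiter-Glo luminescence.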

[3] = biological target: IDH1 wt/IDH1 R132C heterodimer (Homo sapiens (Human), UniProt O75874, R132C); assay: In vitro assay for IDH1m R132C inhibitors, IDH1 wt/IDH1 R132C heterodimer, NADPH depletion (diaphorase/resazurin); type: biochemical; conditions: NADPH/NADP
Outline: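 Remaining NADPH was measured by diaphorase/resazurin conversion (5 min, 25 °C) as resorufin fluorescence, Ex 544/Em 590. DMSO was diluted 1:50 into the reaction, and IC50s were derived.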

[4] = biological target: IDH1 wt/IDH1 R132H heterodimer (Homo sapiens (Human), UniProt O75874, R132H); assay: In vitro assay for IDH1m R132H inhibitors, IDH1 wt/IDH1 R132H heterodimer, NADPH depletion (diaphorase/resazurin); type: biochemical
Outline: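 Purified IDH1wt-his/IDH1R132H-flag heterodimer (sf9 co-expression) pre-incubated 1 hr at room temperature with compound and NADPH before α-KG addition. Remaining NADPH read by diaphorase/resazurin conversion to fluorescent resorufin, 5 min at 25° C. Compounds diluted 1:50 from DMSO; IC50 determined.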

[5] = IDH1 wt/R132H heterodimer, NADPH/NADP, not saturated, read-out: IDH1 wt/R132H NADPH/NADP IC50 not saturated
[6] = IDH1 wt/IDH1 R132H heterodimer, 300 μM NADP (saturated), read-out: IDH1 wt/R132H NADPH/NADP IC50 saturated

Sequence of IDH1 wt/IDH1 R132H heterodimer (O75874 whole entry R132H): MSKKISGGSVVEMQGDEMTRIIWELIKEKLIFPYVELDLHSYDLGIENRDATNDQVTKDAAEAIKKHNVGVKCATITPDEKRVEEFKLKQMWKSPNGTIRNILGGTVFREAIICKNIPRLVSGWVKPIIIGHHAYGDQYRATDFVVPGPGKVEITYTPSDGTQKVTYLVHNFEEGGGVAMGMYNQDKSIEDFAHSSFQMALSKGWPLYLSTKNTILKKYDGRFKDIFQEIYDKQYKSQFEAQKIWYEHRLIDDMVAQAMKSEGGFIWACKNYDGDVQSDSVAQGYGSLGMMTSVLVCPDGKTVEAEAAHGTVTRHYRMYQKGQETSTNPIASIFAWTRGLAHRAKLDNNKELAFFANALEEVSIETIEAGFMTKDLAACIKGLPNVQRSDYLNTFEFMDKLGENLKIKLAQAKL
Sequence of IDH1 wt/IDH1 R132H heterodimer (O75874 whole entry, stated change not applied): as the sequence (O75874 whole entry R132H) above, with H132R counted along it
Sequence of IDH1 wt/IDH1 R132C heterodimer (O75874 whole entry R132C): as the sequence (O75874 whole entry R132H) above, with H132C counted along it
Sequence of IDH1 wt/IDH1 R132C heterodimer (O75874 whole entry, stated change not applied): as the sequence (O75874 whole entry R132H) above, with H132R counted along it

Structure (SMILES)	IC50 [1] [nM]	IC50 [2] [nM]	IC50 [3] [nM]	IC50 [4, 5] [nM]	IC50 [4, 6] [nM]
C[C@@H](Nc1nc(N[C@H](C)C2CC2)nc(-c2nccc(C(F)(F)F)n2)n1)C1CC1 [Compound 268]	50 to 100	< 50	< 50	100 to 1000	–
CC(C)(C)Nc1nc(Nc2ccnc(C#N)c2)nc(-c2cccc(C(F)(F)F)n2)n1 [Compound 162]	< 50	< 50	< 50	< 50	–
FC1(F)CCC(Nc2nc(NC3CC4(C3)CC(F)(F)C4)nc(-c3cccc(C(F)(F)F)n3)n2)C1 (stereo not drawn) [Compound 191]	< 50	< 50	< 50	< 50	–
N#CC1(c2cc(Nc3nc(NCC(F)(F)F)nc(-c4cccc(C(F)(F)F)n4)n3)ccn2)CC1 [Compound 226]	< 50	< 50	50 to 100	< 50	–
FC1(F)CCC(Nc2nc(NC3CCC(F)(F)CC3)nc(-c3nccc(C(F)(F)F)n3)n2)CC1 [Compound 293]	50 to 100	≥ 1000	100 to 1000	100 to 1000	–
FC1(F)CCC(Nc2nc(Nc3ccnc(C(F)(F)F)c3)nc(-c3cccc(C(F)(F)F)n3)n2)CC1 [Compound 192]	< 50	< 50	< 50	< 50	–
FC1(F)CCC(Nc2nc(Nc3ccnc(C(F)(F)F)c3)nc(-c3cncc(C(F)(F)F)n3)n2)CC1 [Compound 389]	< 50	< 50	–	–	< 50
CC(C)(C)Nc1nc(Nc2cccc(C#N)c2)nc(-c2cccc(C(F)(F)F)n2)n1 [Compound 117]	< 50	–	< 50	< 50	–
N#Cc1cc(F)cc(Nc2nc(NC3CCC(F)(F)C3)nc(-c3cccc(C(F)(F)F)n3)n2)c1 (stereo not drawn) [Compound 124]	< 50	< 50	< 50	< 50	–
FC1(F)CCC(Nc2nc(NC3Cc4ccccc4C3)nc(-c3cccc(C(F)(F)F)n3)n2)C1 (stereo not drawn) [Compound 152]	< 50	< 50	< 50	< 50	–
CC(CC#N)Nc1nc(Nc2ccnc(C(C)(F)F)c2)nc(-c2cccc(C(F)(F)F)n2)n1 (stereo not drawn) [Compound 250]	< 50	< 50	100 to 1000	50 to 100	–
C[C@@H](Nc1nc(NC(C2CC2)C2CC2)nc(-c2cccc(C(F)(F)F)n2)n1)C1CC1 [Compound 193]	< 50	< 50	< 50	< 50	–
C[C@@H](Nc1nc(Nc2ccnc(C3(C#N)CC3)c2)nc(-c2cccc(Cl)n2)n1)C1CC1 [Compound 167]	< 50	< 50	< 50	< 50	–
CC(Nc1nc(N[C@H](C)C2CC2)nc(-c2cccc(C(F)(F)F)n2)n1)C(F)(F)F (stereo partly drawn) [Compound 203]	< 50	< 50	< 50	< 50	–
FC1(F)CCC(Nc2nc(NC3CCC(F)(F)C3)nc(-n3ccc(C(F)(F)F)n3)n2)C1 (stereo not drawn) [Compound 146]	< 50	< 50	< 50	< 50	–
N#CC1(c2cc(Nc3nc(NC4CCC(F)(F)C4)nc(-c4nccc(C(F)(F)F)n4)n3)ccn2)CC1 (stereo not drawn) [Compound 261]	< 50	50 to 100	50 to 100	100 to 1000	–
CS(=O)(=O)N1CCC(Nc2nc(NC3CCC(F)(F)CC3)nc(-c3cccc(C(F)(F)F)n3)n2)CC1 [Compound 266]	–	< 50	100 to 1000	100 to 1000	–
FC1(F)CCC(Nc2nc(NC3CCC(F)(F)C3)nc(-c3cccc(Cl)n3)n2)C1 (stereo not drawn) [Compound 113]	< 50	< 50	< 50	< 50	–
N#CC1(c2cc(Nc3nc(NC4CC5(C4)CC(F)(F)C5)nc(-c4cccc(C(F)(F)F)n4)n3)ccn2)CC1 [Compound 229]	< 50	< 50	50 to 100	< 50	–
FC1(F)CC(Nc2nc(NC3CC(F)(F)C3)nc(-n3ccc(C(F)(F)F)n3)n2)C1 [Compound 126]	< 50	< 50	< 50	< 50	–
CCC(Nc1nc(NC(CC)C2CC2)nc(-c2cccc(Cl)n2)n1)C1CC1 (stereo not drawn) [Compound 110]	< 50	< 50	< 50	< 50	–
N#CC1(c2cc(Nc3nc(NC4CCC(F)(F)C4)nc(-c4cccc(C(F)(F)F)n4)n3)ccn2)CC1 (stereo not drawn) [Compound 151]	< 50	< 50	< 50	< 50	–
FC(F)c1cccc(-c2nc(NC3CC(F)(F)C3)nc(NC3CC(F)(F)C3)n2)n1 [Compound 145]	< 50	< 50	< 50	< 50	–

Structure (SMILES)	IC50 [1] [nM]	IC50 [2] [nM]	IC50 [3] [nM]	IC50 [4, 5] [nM]	IC50 [4, 6] [nM]
FC1(F)CCC(Nc2nc(NC3CCC(F)(F)CC3)nc(-n3ccc(C(F)(F)F)n3)n2)CC1 [Compound 176]	< 50	< 50	< 50	< 50	–
FC1(F)CCC(Nc2nc(NC3CCC(F)(F)CC3)nc(-c3cncc(Cl)n3)n2)CC1 [Compound 147]	< 50	< 50	< 50	< 50	–
CC(C#N)Nc1nc(Nc2ccnc(C(C)(F)F)c2)nc(-c2cccc(C(F)(F)F)n2)n1 (stereo not drawn) [Compound 253]	< 50	< 50	100 to 1000	50 to 100	–
FC1(F)CCC(Nc2nc(NC3CCN(c4ccccn4)C3)nc(-c3cccc(C(F)(F)F)n3)n2)C1 (stereo not drawn) [Compound 222]	100 to 1000	< 50	50 to 100	< 50	–
CC(C)(O)CNc1nc(Nc2cc(F)cc(C#N)c2)nc(-c2cccc(C(F)(F)F)n2)n1 [Compound 244]	< 50	< 50	100 to 1000	50 to 100	–
FC1(F)CCC(Nc2nc(NC3CCC(F)(F)CC3)nc(-c3csc(C(F)(F)F)n3)n2)CC1 [Compound 223]	< 50	< 50	50 to 100	< 50	–
FC1(F)CC(Nc2nc(NC3CC(F)(F)C3)nc(-c3csc(C(F)(F)F)n3)n2)C1 [Compound 170]	< 50	< 50	< 50	< 50	–
Fc1ccc([C@H]2C[C@@H](Nc3nc(N[C@H]4C[C@@H](c5ccc(F)cc5)C4)nc(-c4cccc(C(F)(F)F)n4)n3)C2)cc1 [Compound 272]	100 to 1000	–	100 to 1000	100 to 1000	–
FC1(F)CCC(Nc2nc(NC3CCN(Cc4ccccc4)C3)nc(-c3cccc(C(F)(F)F)n3)n2)C1 (stereo not drawn) [Compound 280]	–	–	≥ 1000	100 to 1000	–
CC(F)(F)c1cccc(-c2nc(NC3CC(F)(F)C3)nc(NC3CC(F)(F)C3)n2)n1 [Compound 187]	< 50	< 50	< 50	< 50	–
CC(C)(C#N)Nc1nc(Nc2ccnc(C(C)(F)F)c2)nc(-c2cccc(C(F)(F)F)n2)n1 [Compound 247]	< 50	< 50	50 to 100	50 to 100	–
N#CC1(c2cc(Nc3nc(NC4CC(F)(F)C4)nc(-c4cccc(C(F)(F)F)n4)n3)ccn2)CC1 [Compound 168]	< 50	< 50	–	< 50	–
Clc1cccc(-c2nc(NC(C3CC3)C3CC3)nc(NC(C3CC3)C3CC3)n2)n1 [Compound 131]	< 50	< 50	< 50	< 50	–
FC(F)c1cccc(-c2nc(NC3CCC(F)(F)CC3)nc(NC3CCC(F)(F)CC3)n2)n1 [Compound 224]	< 50	< 50	< 50	< 50	–
N#CC1(c2cc(Nc3nc(NC4CC(F)(F)C4)nc(-c4cncc(C(F)(F)F)n4)n3)ccn2)CC1 [Compound 401]	< 50	< 50	–	–	< 50
FC1(F)CCC(Nc2nc(NC3CCC(F)(F)CC3)nc(-c3cncc(C(F)(F)F)n3)n2)CC1 [Compound 160]	< 50	< 50	–	< 50	–
FC1(F)CC[C@H](Nc2nc(Nc3ccnc(C(F)(F)F)c3)nc(-c3cncc(C(F)(F)F)n3)n2)C1 [Compound 391]	< 50	< 50	–	–	< 50
Fc1cc(F)cc(Nc2nc(NC3CC(F)(F)C3)nc(-n3ccc(C(F)(F)F)n3)n2)c1 [Compound 106]	< 50	< 50	–	< 50	–
FC1(F)CC(Nc2nc(NC3CC(F)(F)C3)nc(-c3cncc(C(F)(F)F)n3)n2)C1 [Compound 161]	< 50	< 50	–	< 50	–
FC1(F)CCC(Nc2nc(NC3CCOCC3)nc(-c3cccc(C(F)(F)F)n3)n2)CC1 [Compound 255]	–	–	100 to 1000	100 to 1000	–
O=C(c1ccccc1)N1CCC(Nc2nc(NC3CCC(F)(F)C3)nc(-c3cccc(C(F)(F)F)n3)n2)C1 (stereo not drawn) [Compound 263]	–	–	100 to 1000	100 to 1000	–
CC(=O)N1CCC(Nc2nc(NC3CCC(F)(F)CC3)nc(-c3cccc(C(F)(F)F)n3)n2)CC1 [Compound 273]	–	–	100 to 1000	100 to 1000	–
